Molecules are shown by their SMILES.

This assay concerns the target T1, EDG-1/S1P1 receptor (Homo sapiens, UniProt P21453).
T1 construct: expressed in transfected cells; host or cells: U2OS (human osteogenic sarcoma), EDG-1 Transfluor U2OS WT Clone #37
The assay is described as follows: In Vitro Cell Based Receptor Activation Assay-Transfluor Assay. The note with it: EDG-1 Transfluor U2OS WT Clone #37 cells; beta-arrestin GFP relocalization in presence of S1P. An excerpt: This cell-based assay was designed to assess the ability of small molecule antagonists to inhibit activation of the GPCR S1P1 in the presence of its cognate ligand S1P. The assay used technology initially developed by Norak Biosciences (Xsira Pharmaceutical) and presently owned by Molecular Devices. A human osteogenic sarcoma (U2OS) cell line overexpressing the EDG-1/S1P1) receptor as well as a beta-arrestin/green fluorescent protein (GFP) construct hereafter termed EDG-1 Transfluor U2OS WT Clone #37 was employed.
Using a high content screening approach (Cellomics Arrayscan), receptor activity was measured by assessment of the relocalization of beta-arrestin GFP in response to stimulation of EDG-1 by S1P. Specifically, EDG-1 Transfluor U2OS WT Clone #37 cells were plated at a density of 6250 cells in 40 uL medium per well in 384 well plastic bottomed inicrotiter plates (BD Falcon) and incubated overnight at 37° C./5% CO2. Prior to screening, compounds were dissolved in 100% dimethyl sulfoxide (DMSO) to a final stock concentration of 10 mM. Compounds were then serially diluted at 30× final concentration in EDG-1 Transfluor cell growth medium containing 30% DMSO using the Tecan Genesis instrument. […] Plates were then sealed and analysed on the Cellomics Arrayscan using the GPCR signalling algorithm. EC50 values were then calculated using IDBS ActivityBase software.

T1 sequence (P21453 whole entry): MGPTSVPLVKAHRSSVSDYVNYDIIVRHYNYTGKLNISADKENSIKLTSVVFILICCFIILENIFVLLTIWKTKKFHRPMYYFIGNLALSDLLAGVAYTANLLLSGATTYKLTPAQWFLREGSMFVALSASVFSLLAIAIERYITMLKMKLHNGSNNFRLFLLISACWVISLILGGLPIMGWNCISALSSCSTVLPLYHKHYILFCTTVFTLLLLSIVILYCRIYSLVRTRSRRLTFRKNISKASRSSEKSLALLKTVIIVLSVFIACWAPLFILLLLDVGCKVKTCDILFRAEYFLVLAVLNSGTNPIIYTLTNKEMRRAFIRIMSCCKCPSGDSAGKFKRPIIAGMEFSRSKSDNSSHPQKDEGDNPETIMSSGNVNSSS

As for `Cc1cnc(C(Cc2ccccc2)NS(=O)(=O)c2ccc(Cl)cc2)n1C` (stereo not shown) [Example 1, 4-Chloro-N-[1-(1,5-dimethyl-1H-imidazol-2-yl)-2-phenylethyl]benzenesulfonamide], the EC50 came out at 2120 nM.

What is called EC50 is the concentration giving half of the maximal effect.

The values are drawn from patent US20090105324A1, “IMIDAZOLE DERIVATIVES FOR USE AS EDG-1 ANTAGONISTS” (AstraZeneca AB, priority 2006, published 2009).
